This note sets out measurements from PubChem BioAssay AID2060495 (Molecular Pharmacology Branch, DTP, NCI, 2025).

Structures are written as SMILES. pIC50: −log10 of the molar value. Values joined by “and” are separate entries in the source; they are usually repeats but may differ in a detail not shown here. Equal entries are not always repeated.

For the assay, the system named is 521955-158-R2-J5-PDC complex spheroid viability. As to the kind of experiment: Anticancer human tumor 521955-158-R2-J5-PDC patient-derived pancreatic carcinoma cell line growth inhibition [GQUAD]. The following applies: for viability, T/C: stronger effect = lower value. The text has this:
DNA G-quadruplex Stabilizer Agents in Combinations in Complex Spheroids
A high-throughput screen of multi-cell type tumor spheroids was designed to identify active combinations of DNA G-quadruplex stabilizer agents and targeted small molecules. Complex spheroids include a stromal component modeled by human endothelial cells (HUVEC) and fibroblasts modeled by human mesenchymal stem cells (MSCs). The concentration ranges selected for each drug and investigational agent were based upon clinically achievable concentrations if the clinical Cmax of the agent was known.
Compounds. The drugs and investigational agents: pidnarulex (CX-5461; NSC782164), APTO-253 (NSC789042), BRACO-19 (NSC847499), peposertib (NSC802822), ceralasertib (NSC780249), elimusertib (NSC800525), camonsertib (NSC841442), AZD-1390 (NSC803789), olaparib (NSC753686), talazoparib (NSC767125), ART-558 (NSC835418), sotorasib (NSC818433), MRTX-1133 (NSC836407), SN-38 (NSC673596), topotecan (NSC609699), etoposide (NSC141540), doxorubicin (NSC123127), gemcitabine (NSC613327), 5-fluorouracil (NSC19893), paclitaxel (NSC125973), vemurafenib (NSC761431), panobinostat (NSC761190), R-306465 (JNJ-16241199; NSC773264), adavosertib (NSC754352), TP-3654 (NSC805149), carboplatin (NSC241240), KSQ-4279 (NSC840948), and staurosporine (NSC755774) were obtained from the National Cancer Institute (NCI) Developmental Therapeutics Program Chemical Repository (34). The FDA-approved anticancer drug set is available from the NCI Developmental Therapeutics Program. […] The stock solutions were prepared in dimethyl sulfoxide (DMSO, Sigma-Aldrich, St. Louis, MO, cat. D2650) at 800-fold the tested concentration and stored at -70 degrees C prior to their use. All drugs and investigational agents were tested over a range starting from a high concentration at or near the clinical Cmax and decreasing in half-log increments. If the clinical Cmax for an agent had not been determined, the highest concentration tested was 10 microM.
2.3 Cell Culture. All cells were maintained in an incubator at 37 degrees C and 5% CO2 with 95% humidity. The PDC lines were cultured according to standard operating procedures established by the NCI PDMR. All PDCs were thawed and cultured in Matrigel-coated flasks prepared with a working solution of 1X Ham's F-12 nutrient mix, without supplementation (Invitrogen, cat. 11765054), 100 U/mL penicillin-streptomycin (Invitrogen, cat. 15140122), and 2.5% Matrigel (Corning Inc., cat. 354248) for the first three passages. The 857933-349-R-J2-PDC line was cultured in 6C/Colon 1B media, which includes advanced DMEM/F-12 (Thermo Fisher Scientific, cat. 12634028), 10 mM HEPES (Thermo Fisher Scientific, cat. 15630080), 1X GlutaMAX supplement (Thermo Fisher Scientific, cat. 35050061), 0.1 mg/mL primocin (InvivoGen, cat. ant-pm-2), 10% defined fetal bovine serum, heat inactivated (HyClone Laboratories Inc., cat. SH30070.03HI), 50% L-WRN conditioned media (ATCC, cat. CRL-3276), 1.25 mM N-Acetyl-L-cysteine (Sigma-Aldrich, cat. A9165), 10 mM nicotinamide (Sigma-Aldrich, cat. N0636), 1X B-27 supplement (Thermo Fisher Scientific, cat. 17504044), 1X N-2 supplement (Thermo Fisher Scientific, cat. 17502048), 10 microM Y-27632 dihydrochloride (Tocris Bioscience, cat. 1254), and 50 ng/mL human EGF recombinant protein (Thermo Fisher Scientific, cat. PHG0311). The 485176-168-R4-J1-PDC line was cultured in Panc media, which includes all 6C/Colon 1B media components plus 100 ng/mL human FGF-10 (Thermo Fisher Scientific, cat. 100-26), 500 nM SB-431542 (Selleckchem, cat. S1067), and gastrin (Tocris, cat. 3006).
[…]

[1] abbreviates: curve of first compound, second compound 0.0316 µM.
[2] abbreviates: curve of first compound, second compound 0.1 µM.
[3] abbreviates: curve of first compound, second compound 0.316 µM.
Where [4] appears, read: curve of first compound, second compound 1 µM.
Where [5] appears, read: curve of first compound, second compound 3.16 µM.
[6] abbreviates: curve of first compound, second compound 10 µM.
Setting [7] is: second compound 0.0316 µM, first compound 0.0316 µM.
Where [8] appears, read: second compound 0.0316 µM, first compound 0.316 µM.
Setting [9] is: second compound 0.1 µM, first compound 0.0316 µM.
Setting [10] is: second compound 0.1 µM, first compound 0.316 µM.
Setting [11] is: second compound 0.316 µM, first compound 0.0316 µM.
[12] abbreviates: second compound 0.316 µM, first compound 0.316 µM.
[13] abbreviates: second compound 1 µM, first compound 0.0316 µM.
Where [14] appears, read: second compound 1 µM, first compound 0.316 µM.
Where [15] appears, read: second compound 3.16 µM, first compound 0.0316 µM.
Setting [16] is: second compound 3.16 µM, first compound 0.316 µM.
Where [17] appears, read: second compound 10 µM, first compound 0.0316 µM.
Where [18] appears, read: second compound 10 µM, first compound 0.316 µM.
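Further: spheroids exposed to agents for one week before reading.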

Consider `O=c1[nH]cc(F)c(=O)[nH]1` + Cc1[nH]c2ccc(F)cc2c1-c1nc2c3cccnc3c3ncccc3c2[nH]1, for which the negative-log IC50 (pIC50) (in general, the IC50 on a negative log10 scale, so that one unit is a factor of ten) under setting [1] was 5.43; the pIC50 under setting [2] is 5.31; the pIC50 under setting [3] was 5.51; the pIC50 under setting [4] was 5.61; the pIC50 under setting [5] is 5.60; the pIC50 under setting [6] was 5.68. For the same compound, the viability, T/C (commonly the ratio of treated to control) is 110% under setting [7]; 84.6% (second compound 0.0316 µM, first compound 0.1 µM); 76% under setting [8]; 96.7% (second compound 0.0316 µM, first compound 1 µM); 55% (second compound 0.0316 µM, first compound 3.16 µM); 19.6% (second compound 0.0316 µM, first compound 10 µM). For the same compound, the viability, T/C is 99.6% under setting [9]; 97.1% (second compound 0.1 µM, first compound 0.1 µM); 90.7% under setting [10]; 89.6% (second compound 0.1 µM, first compound 1 µM); 67% (second compound 0.1 µM, first compound 3.16 µM); 21.1% (second compound 0.1 µM, first compound 10 µM). The viability, T/C runs as follows: under setting [11], 90.9%; (second compound 0.316 µM, first compound 0.1 µM) 94.3%; under setting [12], 104%; (second compound 0.316 µM, first compound 1 µM) 97.8%; (second compound 0.316 µM, first compound 3.16 µM) 48.9%; (second compound 0.316 µM, first compound 10 µM) 16.2%. The viability, T/C by setting is: under setting [13], 95.2%; (second compound 1 µM, first compound 0.1 µM) 114%; under setting [14], 91.1%; (second compound 1 µM, first compound 1 µM) 91.4%; (second compound 1 µM, first compound 3.16 µM) 38.9%; (second compound 1 µM, first compound 10 µM) 22%. Further, the viability, T/C reads like this: under setting [15], 106%; (second compound 3.16 µM, first compound 0.1 µM) 97.2%; under setting [16], 107%; (second compound 3.16 µM, first compound 1 µM) 104%; (second compound 3.16 µM, first compound 3.16 µM) 37.1%; (second compound 3.16 µM, first compound 10 µM) 18.2%. Moreover, the viability, T/C by setting is: under setting [17], 105%; (second compound 10 µM, first compound 0.1 µM) 104%; under setting [18], 103%; (second compound 10 µM, first compound 1 µM) 88.5%; (second compound 10 µM, first compound 3.16 µM) 28%; (second compound 10 µM, first compound 10 µM) 19.3%.
Take `CCc1c2c(nc3ccc(O)cc13)-c1cc3c(c(=O)n1C2)COC(=O)[C@]3(O)CC` + Cc1cnc(CNC(=O)c2c(=O)c3ccc(N4CCCN(C)CC4)nc3n3c2sc2ccccc23)cn1: the pIC50 is 8.98 under setting [1]; more than 9.00 under setting [2]; more than 9.00 under setting [3]; more than 9.00 under setting [4]; more than 9.00 under setting [5]; more than 9.00 under setting [6]. For the same compound, the viability, T/C is 51.5% (second compound 0.0316 µM, first compound 0.000999 µM); 15.3% (second compound 0.0316 µM, first compound 0.00316 µM); 11.1% (second compound 0.0316 µM, first compound 0.00999 µM); 6.45% under setting [7]; 6.82% (second compound 0.0316 µM, first compound 0.0999 µM); 2.28% under setting [8]. Also, the viability, T/C is 32.7% (second compound 0.1 µM, first compound 0.000999 µM); 18.6% (second compound 0.1 µM, first compound 0.00316 µM); 12.7% (second compound 0.1 µM, first compound 0.00999 µM); 6% under setting [9]; 4.68% (second compound 0.1 µM, first compound 0.0999 µM); 1.38% under setting [10]. The viability, T/C is, setting by setting: (second compound 0.316 µM, first compound 0.000999 µM) 25.2%; (second compound 0.316 µM, first compound 0.00316 µM) 15.8%; (second compound 0.316 µM, first compound 0.00999 µM) 12.8%; under setting [11], 5.79%; (second compound 0.316 µM, first compound 0.0999 µM) 4.66%; under setting [12], 0.47%. The viability, T/C runs as follows: (second compound 1 µM, first compound 0.000999 µM) 17.1%; (second compound 1 µM, first compound 0.00316 µM) 13.5%; (second compound 1 µM, first compound 0.00999 µM) 7.77%; under setting [13], 1.4%; (second compound 1 µM, first compound 0.0999 µM) 0.12%; under setting [14], 0.1%. Besides, the viability, T/C reads like this: (second compound 3.16 µM, first compound 0.000999 µM) 13.7%; (second compound 3.16 µM, first compound 0.00316 µM) 9.61%; (second compound 3.16 µM, first compound 0.00999 µM) 3.83%; under setting [15], 0.1%; (second compound 3.16 µM, first compound 0.0999 µM) 0.1%; under setting [16], 0.14%. Besides, the viability, T/C reads like this: (second compound 10 µM, first compound 0.000999 µM) 12%; (second compound 10 µM, first compound 0.00316 µM) 9.68%; (second compound 10 µM, first compound 0.00999 µM) 3.64%; under setting [17], 0.13%; (second compound 10 µM, first compound 0.0999 µM) 0.17%; under setting [18], 0.21%.
For `Cc1cnc(CNC(=O)c2c(=O)c3ccc(N4CCCN(C)CC4)nc3n3c2sc2ccccc23)cn1`, the viability, T/C (compound 0.0316 µM) was 79.7% [middle of 12 runs]; the viability, T/C (compound 0.316 µM) is 38.2% [middle of 12 runs]; the viability, T/C (compound 1 µM) was 22.1% [middle of 12 runs]; the viability, T/C (compound 3.16 µM) is 20.7% [middle of 12 runs]; the viability, T/C (compound 10 µM) was 18.8% [middle of 12 runs]. For the same compound, the half-maximal inhibitory concentration (IC50) (as a rule, the concentration that gives 50% inhibition) (compound alone, run of 04/16/2024) was 137 nM [middle of 11 runs].
For `COc1cccc2c1C(=O)c1c(O)c3c(c(O)c1C2=O)CC(O)(C(=O)CO)CC3OC1CC(N)C(O)C(C)O1` (centres undefined), the viability, T/C reads like this: (compound 0.0316 µM) 97.9% and 93.8% and 88.4%; (compound 0.1 µM) 57.4% and 74.5% and 45%; (compound 0.316 µM) 34.3% and 31.6% and 30.2%; (compound 1 µM) 13.4% and 43% and 12.5%; (compound 3.16 µM) 4.07% and 4.69% and 3.22%; (compound 10 µM) 1.01% and 2.64% and 0.42%. Moreover, the pIC50 (curve of compound) was 6.84 and 6.60 and 7.01.
Take `CC1COCCN1c1cc(C2(O)CC3CCC(C2)O3)c2cnn(-c3ccn[nH]3)c2n1` (centres undefined): the viability, T/C is 32.7% and 40.2% and 58% (compound 0.0316 µM); 11% and 10.8% and 17.1% (compound 0.1 µM); 11.7% and 12.3% and 23.7% (compound 0.316 µM); 15.8% and 17.1% and 31.5% (compound 1 µM); 19.6% and 19% and 32.1% (compound 3.16 µM); 6.3% and 8.53% and 21.2% (compound 10 µM). For the same compound, the negative-log IC50 (pIC50) (curve of compound) was > 7.50 and 7.38.
